Assay results reported in patent US20220088146A1, “Melanocortin Receptor-Specific Peptide Formulations and Methods for Gastrointestinal Tract-Specific Delivery” (Palatin Technologies, Inc., priority 2018, published 2022).
Numbered stars: 1 amine (or outer) side, 2 acyl side, 3 side chain; on linkers, the order of the positions; unused ones are H or OH. Bridge positions count the residues as written; N and C are the ends. Square brackets hold non-standard residues; d marks the D form. Peptide text beside a SMILES is read from it. Suc = O=C(CCC(=O)[*:2])[*:1]; Nle = CCCC[C@H](N)C(=O)O; Dab = NCC[C@H](N)C(=O)O; Dap = NC[C@H](N)C(=O)O

The compounds below were run against hMC1r (Homo sapiens, UniProt Q01726) (assay: Assay for agonist activity: cAMP accumulation in HBL melanoma cells). Conditions: HBL, compared to NDP-α-MSH as 100%, read-out: MC-1 Emax (average; cAMP HBL).
Chain of hMC1r (Q01726 whole entry): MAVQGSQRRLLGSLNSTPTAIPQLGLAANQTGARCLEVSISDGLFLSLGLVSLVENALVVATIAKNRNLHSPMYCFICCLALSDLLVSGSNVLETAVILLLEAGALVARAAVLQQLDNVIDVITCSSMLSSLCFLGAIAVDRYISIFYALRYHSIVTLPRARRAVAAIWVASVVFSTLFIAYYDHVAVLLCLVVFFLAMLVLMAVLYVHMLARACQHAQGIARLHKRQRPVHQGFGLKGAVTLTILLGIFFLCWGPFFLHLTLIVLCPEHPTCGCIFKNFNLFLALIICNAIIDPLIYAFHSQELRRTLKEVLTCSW
Assay type: cell-based
Design: endogenous in cells; host or cells: HBL human melanoma cells
Description: 8.2 Assay for Agonist Activity.
Confluent HBL cells that express hMC1r or HEK-293 cells that express recombinant hMC4r were detached from culture plates by incubation in enzyme-free cell dissociation buffer. Dispersed cells were suspended in Earle's Balanced Salt Solution containing 10 mM HEPES (pH 7.5), 1 mM MgCl2, 1 mM glutamine, 0.5% albumin and 0.3 mM 3-isobutyl-1-methyl-xanthine (IBMX), a phosphodiesterase inhibitor. The cells were plated in 96-well plates at a density of 0.4×10^5 cells per well for HBL cells and 0.5×10^5 cells per well for HEK-293 cells and pre-incubated for 10 minutes. Cells were exposed for 15 minutes at 37° C. to peptides of the present invention dissolved in DMSO (final DMSO concentration of 1%) at a concentration range of 0.05-5000 nM in a total assay volume of 200 μL. […] Data analysis was performed by nonlinear regression analysis with Graph-Pad Prism® software.
All results are expressed in nM except for Emax values, which are percentage values. Peptides with the captioned primary sequence were synthesized and purified as described in Section 7 above, with the resulting peptide having the structure depicted.

Emax	SMILES
97%	CCCC[C@H](NC(C)=O)C(=O)N[C@H]1CCC(=O)NCCCC[C@@H](C(=O)N[C@@H](Cc2c[nH]c3ccccc23)C(N)=O)NC(=O)[C@H](CCCNC(=N)N)NC(=O)[C@@H](Cc2ccccc2)NC(=O)[C@H](Cc2c[nH]cn2)NC1=O [Example 9.1, Ac-Nle-cyclo(Glu-His-D-Phe-Arg-Lys)-Trp-NH2]
95%	CCCC[C@H](NC(C)=O)C(=O)N[C@H]1CCC(=O)NCC[C@@H](C(=O)N[C@@H](Cc2c[nH]c3ccccc23)C(N)=O)NC(=O)[C@H](CCCNC(=N)N)NC(=O)[C@@H](Cc2ccccc2)NC(=O)[C@H](Cc2c[nH]cn2)NC1=O [Example 9.2, Ac-Nle-cyclo(Glu-His-D-Phe-Arg-Dab)-Trp-NH2]
88%	CCCC[C@H](NC(C)=O)C(=O)N[C@H]1CC(=O)NC[C@@H](C(=O)N[C@@H](Cc2c[nH]c3ccccc23)C(N)=O)NC(=O)[C@H](CCCNC(=N)N)NC(=O)[C@@H](Cc2ccccc2)NC(=O)[C@H](Cc2c[nH]cn2)NC1=O [Example 9.4, Ac-Nle-cyclo(Asp-His-D-Phe-Arg-Dap)-Trp-NH2] (Ac-[Nle]DH[dF]R[Dap]W-NH2; lactam 2-6)
87%	CCCC[C@H](NC(C)=O)C(=O)N[C@H]1CSSC[C@@H](C(=O)N[C@@H](Cc2c[nH]c3ccccc23)C(N)=O)NC(=O)[C@H](CCCNC(=N)N)NC(=O)[C@@H](Cc2ccccc2)NC(=O)[C@H](Cc2c[nH]cn2)NC1=O [Example 9.5, Ac-Nle-cyclo(Cys-His-D-Phe-Arg-Cys)-Trp-NH2]
91%	CCCC[C@H](NC(C)=O)C(=O)N[C@H]1CCC(=O)NCCC[C@@H](C(=O)N[C@@H](Cc2c[nH]c3ccccc23)C(N)=O)NC(=O)[C@H](CCCNC(=N)N)NC(=O)[C@@H](Cc2ccccc2)NC(=O)[C@H](Cc2c[nH]cn2)NC1=O [Example 9.6, Ac-Nle-cyclo(Glu-His-D-Phe-Arg-Orn)-Trp-NH2]
93%	CCCC[C@H](NC(C)=O)C(=O)N[C@H]1CCC(=O)NCC[C@@H](C(=O)N[C@H](Cc2c[nH]c3ccccc23)C(N)=O)NC(=O)[C@H](CCCNC(=N)N)NC(=O)[C@@H](Cc2ccccc2)NC(=O)[C@H](Cc2c[nH]cn2)NC1=O [Example 9.7, Ac-Nle-cyclo(Glu-His-D-Phe-Arg-Dab)-D-Trp-NH2]
88%	CCCC[C@H](NC(C)=O)C(=O)N[C@H]1CCC(=O)NCC[C@@H](C(=O)N[C@@H](Cc2c[nH]c3ccccc23)C(N)=O)NC(=O)[C@H](CCCNC(=N)N)NC(=O)[C@H](Cc2ccccc2)NC(=O)[C@H](Cc2c[nH]cn2)NC1=O [Example 9.8, Ac-Nle-cyclo(Glu-His-Phe-Arg-Dab)-Trp-NH2]
73%	CCCC[C@H](NC(C)=O)C(=O)N[C@H]1CCC(=O)NCC[C@@H](C(=O)N[C@H](Cc2cccc3ccccc23)C(N)=O)NC(=O)[C@H](CCCNC(=N)N)NC(=O)[C@@H](Cc2ccccc2)NC(=O)[C@H](Cc2c[nH]cn2)NC1=O [Example 9.9, Ac-Nle-cyclo(Glu-His-D-Phe-Arg-Dab)-D-Nal 1-NH2]
83%	CCCC[C@H](NC(C)=O)C(=O)N[C@H]1CCC(=O)NCC[C@@H](C(=O)N[C@@H](Cc2ccc3ccccc3c2)C(N)=O)NC(=O)[C@H](CCCNC(=N)N)NC(=O)[C@@H](Cc2ccccc2)NC(=O)[C@H](Cc2c[nH]cn2)NC1=O [Example 9.10, Ac-Nle-cyclo(Glu-His-D-Phe-Arg-Dab)-Nal 2-NH2]
69%	CCCC[C@H](NC(C)=O)C(=O)N[C@H]1CCC(=O)NCC[C@@H](C(=O)N[C@H](Cc2ccc3ccccc3c2)C(N)=O)NC(=O)[C@H](CCCNC(=N)N)NC(=O)[C@@H](Cc2ccccc2)NC(=O)[C@H](Cc2c[nH]cn2)NC1=O [Example 9.11, Ac-Nle-cyclo(Glu-His-D-Phe-Arg-Dab)-D-Nal 2-NH2]
75%	CC(=O)N[C@H](Cc1ccccc1)C(=O)N[C@H]1CCC(=O)NCC[C@@H](C(=O)N[C@@H](Cc2c[nH]c3ccccc23)C(N)=O)NC(=O)[C@H](CCCNC(=N)N)NC(=O)[C@@H](Cc2ccccc2)NC(=O)[C@H](Cc2c[nH]cn2)NC1=O [Example 9.12, Ac-D-Phe-cyclo(Glu-His-D-Phe-Arg-Dab)-Trp-NH2]
75%	CC(=O)N[C@@H](Cc1ccccc1)C(=O)N[C@H]1CCC(=O)NCC[C@@H](C(=O)N[C@@H](Cc2c[nH]c3ccccc23)C(N)=O)NC(=O)[C@H](CCCNC(=N)N)NC(=O)[C@@H](Cc2ccccc2)NC(=O)[C@H](Cc2c[nH]cn2)NC1=O [Example 9.13, Ac-Phe-cyclo(Glu-His-D-Phe-Arg-Dab)-Trp-NH2]
80%	N=C(N)NCCC[C@@H]1NC(=O)[C@@H](Cc2ccccc2)NC(=O)[C@H](Cc2c[nH]cn2)NC(=O)CCC(=O)NCC[C@@H](C(=O)N[C@@H](Cc2c[nH]c3ccccc23)C(N)=O)NC1=O [Example 9.14, cyclo(Suc-His-Phe-Arg-Dab)-Trp-NH2] (H[dF]R[Dab]W-NH2; linker N-4 via Suc)
91%	CCCC(=O)N[C@H]1CCC(=O)NCC[C@@H](C(=O)N[C@@H](Cc2c[nH]c3ccccc23)C(N)=O)NC(=O)[C@H](CCCNC(=N)N)NC(=O)[C@@H](Cc2ccccc2)NC(=O)[C@H](Cc2c[nH]cn2)NC1=O [Example 9.15, CH3—(CH2)2—C(═O)-cyclo(Glu-His-D-Phe-Arg-Dab)-Trp-NH2]
89%	CCCCC(=O)N[C@H]1CCC(=O)NCC[C@@H](C(=O)N[C@@H](Cc2c[nH]c3ccccc23)C(N)=O)NC(=O)[C@H](CCCNC(=N)N)NC(=O)[C@@H](Cc2ccccc2)NC(=O)[C@H](Cc2c[nH]cn2)NC1=O [Example 9.16, CH3—(CH2)3—C(═O)-cyclo(Glu-His-D-Phe-Arg-Dab)-Trp-NH2]
90%	CCCCCC(=O)N[C@H]1CCC(=O)NCC[C@@H](C(=O)N[C@@H](Cc2c[nH]c3ccccc23)C(N)=O)NC(=O)[C@H](CCCNC(=N)N)NC(=O)[C@@H](Cc2ccccc2)NC(=O)[C@H](Cc2c[nH]cn2)NC1=O [Example 9.17, CH3—(CH2)4—C(═O)-cyclo(Glu-His-D-Phe-Arg-Dab)-Trp-NH2]
87%	CCCCCCC(=O)N[C@H]1CCC(=O)NCC[C@@H](C(=O)N[C@@H](Cc2c[nH]c3ccccc23)C(N)=O)NC(=O)[C@H](CCCNC(=N)N)NC(=O)[C@@H](Cc2ccccc2)NC(=O)[C@H](Cc2c[nH]cn2)NC1=O [Example 9.18, CH3—(CH2)5—C(═O)-cyclo(Glu-His-D-Phe-Arg-Dab)-Trp-NH2]
83%	N=C(N)NCCC[C@@H]1NC(=O)[C@@H](Cc2ccccc2)NC(=O)[C@H](Cc2c[nH]cn2)NC(=O)[C@@H](NC(=O)C2CC2)CCC(=O)NCC[C@@H](C(=O)N[C@@H](Cc2c[nH]c3ccccc23)C(N)=O)NC1=O [Example 9.19, cyclo-propanoyl-cyclo(Glu-His-D-Phe-Arg-Dab)-Trp-NH2]
79%	N=C(N)NCCC[C@@H]1NC(=O)[C@@H](Cc2ccccc2)NC(=O)[C@H](Cc2c[nH]cn2)NC(=O)[C@@H](NC(=O)C2CCCCC2)CCC(=O)NCC[C@@H](C(=O)N[C@@H](Cc2c[nH]c3ccccc23)C(N)=O)NC1=O [Example 9.20, cyclo-hexanoyl-cyclo(Glu-His-D-Phe-Arg-Dab)-Trp-NH2]
83%	N=C(N)NCCC[C@@H]1NC(=O)[C@@H](Cc2ccccc2)NC(=O)[C@H](Cc2c[nH]cn2)NC(=O)[C@@H](NC(=O)CC2CCCC2)CCC(=O)NCC[C@@H](C(=O)N[C@@H](Cc2c[nH]c3ccccc23)C(N)=O)NC1=O [Example 9.21, cyclopentyl acetyl-cyclo(Glu-His-D-Phe-Arg-Dab)-Trp-NH2]
85%	N=C(N)NCCC[C@@H]1NC(=O)[C@@H](Cc2ccccc2)NC(=O)[C@H](Cc2c[nH]cn2)NC(=O)[C@@H](NC(=O)CC2CCCCC2)CCC(=O)NCC[C@@H](C(=O)N[C@@H](Cc2c[nH]c3ccccc23)C(N)=O)NC1=O [Example 9.22, cyclohexyl acetyl-cyclo(Glu-His-D-Phe-Arg-Dab)-Trp-NH2]
82%	N=C(N)NCCC[C@@H]1NC(=O)[C@@H](Cc2ccccc2)NC(=O)[C@H](Cc2c[nH]cn2)NC(=O)[C@@H](NC(=O)Cc2ccccc2)CCC(=O)NCC[C@@H](C(=O)N[C@@H](Cc2c[nH]c3ccccc23)C(N)=O)NC1=O [Example 9.23, phenyl acetyl-cyclo(Glu-His-D-Phe-Arg-Dab)-Trp-NH2]
83%	N=C(N)NCCC[C@@H]1NC(=O)[C@@H](Cc2ccccc2)NC(=O)[C@H](Cc2c[nH]cn2)NC(=O)[C@@H](NC(=O)CCc2ccccc2)CCC(=O)NCC[C@@H](C(=O)N[C@@H](Cc2c[nH]c3ccccc23)C(N)=O)NC1=O [Example 9.24, phenyl propanoyl-cyclo(Glu-His-D-Phe-Arg-Dab)-Trp-NH2]
97%	CCCC[C@H](NC(C)=O)C(=O)N[C@H]1CCC(=O)NCC[C@@H](C(=O)N[C@@H](C)C(N)=O)NC(=O)[C@H](CCCNC(=N)N)NC(=O)[C@@H](Cc2ccccc2)NC(=O)[C@H](Cc2c[nH]cn2)NC1=O [Example 9.25, Ac-Nle-cyclo(Glu-His-D-Phe-Arg-Dab)-Ala-NH2] (Ac-[Nle]EH[dF]R[Dab]A-NH2; lactam 2-6)
92%	CCCC[C@H](NC(C)=O)C(=O)N[C@H]1CCNC(=O)CCC(=O)NCC[C@@H](C(=O)N[C@@H](Cc2c[nH]c3ccccc23)C(N)=O)NC(=O)[C@H](CCCNC(=N)N)NC(=O)[C@@H](Cc2ccccc2)NC(=O)[C@H](Cc2c[nH]cn2)NC1=O [Example 9.27, Ac-Nle-cyclo(Dab-His-D-Phe-Arg-Dab)-Trp-NH2]
70%	CCCC[C@H](NC(C)=O)C(=O)N[C@H]1CNC(=O)CCC(=O)NC[C@@H](C(=O)N[C@@H](Cc2c[nH]c3ccccc23)C(N)=O)NC(=O)[C@H](CCCNC(=N)N)NC(=O)[C@@H](Cc2ccccc2)NC(=O)[C@H](Cc2c[nH]cn2)NC1=O [Example 9.28, Ac-Nle-cyclo(Dap-His-D-Phe-Arg-Dap)-Trp-NH2]
